# From paper PMC11289893 (RSC Chemical Biology, 2024)
# System: HeLa cells
# Experiment: Cell proliferation
# Format: cell-based
# Conditions: tested concentrations 0 to 20 μM
smiles,measurement,value
COC[C@H]1OC(=O)c2coc3c2[C@@]1(C)C1=C(C3=O)[C@@H]2CCC(=O)[C@@]2(C)C[C@H]1OC(C)=O [Wortmannin],cytotoxicity in HeLa cells,did not observe Wortmannin cytotoxicity
